Experimental data reported in patent EP0908457B1, “3-(1,2-benzisothiazol- and isoxazol-5-Y1)-2,4(1H,3H)-pyrimidinedione or thione and 3-(1,2-benzisothiazol- and isoxazol-5-y1)-4(3H)-pyrimidinone or thione herbicidal agents” (BASF AKTIENGESELLSCHAFT, priority 1997, dated 1999).

Experiments:
[1] = test system: Monochoria vaginalis, Presl.; assay: Preemergence weed control under flooded paddy conditions, MOOVA (Monochoria); type: in vivo; conditions: preemergence weeds, flooded paddy; for herbicidal effect rating, MOOVA: rated three to four weeks after treatment; for MOOVA: herbicidal effect rating 0-9, three to four weeks after treatment; on herbicidal effect rating, MOOVA: meaning of each grade not given here
[2] = test system: Cyperus serotinus, Rottb.; assay: Preemergence weed control under flooded paddy conditions, CYPSE (Flatsedge); type: in vivo; conditions: preemergence weeds; for herbicidal effect rating, CYPSE: rated three to four weeks after treatment; for CYPSE: herbicidal effect rating 0-9, three to four weeks after treatment; on herbicidal effect rating, CYPSE: meaning of each grade not given here
[3] = test system: Cyperus iria; assay: Preemergence weed control under flooded paddy conditions, CYPIR (Rice Flatsedge); type: in vivo; conditions: preemergence weeds, flooded paddy; for herbicidal effect rating, CYPIR: rated three to four weeks after treatment; for CYPIR: herbicidal effect rating 0-9, three to four weeks after treatment; on herbicidal effect rating, CYPIR: meaning of each grade not given here
[4] = test system: Echinochloa oryzoides (Ard.) Fritsch.; assay: Preemergence weed control under flooded paddy conditions, ECHORC (Watergrass (Calif.)); type: in vivo; conditions: preemergence weeds, flooded paddy; for herbicidal effect rating, ECHORC: rated three to four weeks after treatment; for ECHORC: herbicidal effect rating 0-9, three to four weeks after treatment; on herbicidal effect rating, ECHORC: meaning of each grade not given here
[5] = test system: Oryza sativa, (L.) Tebonnet; assay: Rice tolerance to post-transplant applications under flooded paddy conditions (Example 187), ORYSAT (Rice, Tebonnet); conditions: for herbicidal effect rating, ORYSAT (rice tolerance) / herbicidal effect rating ORYSAT: rated three to four weeks after treatment; for ORYSAT: herbicidal effect rating 0-9, three to four weeks after treatment
[6] = test system: Sagittaria pygmaea, L.; assay: Preemergence weed control under flooded paddy conditions, SAGPY (Arrowhead (Pygmaea)); type: in vivo; conditions: preemergence weeds, flooded paddy; for herbicidal effect rating, SAGPY: rated three to four weeks after treatment; for SAGPY: herbicidal effect rating 0-9, three to four weeks after treatment; on herbicidal effect rating, SAGPY: meaning of each grade not given here

In the case of `Cn1c(C(F)(F)F)cc(=O)n(-c2ccc3snc(COCCCl)c3c2)c1=O` [Example 198, 3-{3-[(2-Chloroethoxy)methyl]-1,2-benzisothiazol-5-yl}-1-methyl-6-(trifluoromethyl)-2,4(1H,3H)-pyrimidinedione], the “herbicidal effect rating, MOOVA” value ([1]; 0.0313 kg/ha) is reported as 9.0, the “herbicidal effect rating, MOOVA” value ([1]; 0.0625 kg/ha) is reported as 9.0 and the “herbicidal effect rating, MOOVA” value ([1]; 0.1250 kg/ha) is reported as 9.0. The “herbicidal effect rating, MOOVA” value ([1]; 0.2500 kg/ha) was 9.0, the “herbicidal effect rating, CYPSE” value ([2]; 0.0313 kg/ha) was 0.0 and the “herbicidal effect rating, CYPSE” value ([2]; 0.0625 kg/ha) was 2.0. For the same compound, the “herbicidal effect rating, CYPSE” value ([2]; 0.1250 kg/ha) was 4.0, the “herbicidal effect rating, CYPSE” value ([2]; 0.2500 kg/ha) was 8.0 and the “herbicidal effect rating, CYPIR” value ([3]; 0.0313 kg/ha) was 0.0. For the same compound, the “herbicidal effect rating, CYPIR” value ([3]; 0.0625 kg/ha) was 2.0, the “herbicidal effect rating, CYPIR” value ([3]; 0.1250 kg/ha) was 4.0 and the “herbicidal effect rating, CYPIR” value ([3]; 0.2500 kg/ha) was 7.0. The “herbicidal effect rating, ECHORC” value ([4]; 0.0313 kg/ha) was 4.0, the “herbicidal effect rating, ECHORC” value ([4]; 0.0625 kg/ha) was 6.0 and the “herbicidal effect rating, ECHORC” value ([4]; 0.1250 kg/ha) was 9.0. The “herbicidal effect rating, ECHORC” value ([4]; 0.2500 kg/ha) was 9.0, the “herbicidal effect rating, ORYSAT (rice tolerance)” value (from here on “herbicidal effect rating, ORYSAT”) ([5]; 0.0313 kg/ha) was 4.0 and the “herbicidal effect rating, ORYSAT” value ([5]; 0.0625 kg/ha) was 7.0. For the same compound, the “herbicidal effect rating, ORYSAT” value ([5]; 0.1250 kg/ha) was 8.0, the “herbicidal effect rating, ORYSAT” value ([5]; 0.2500 kg/ha) was 9.0 and the “herbicidal effect rating, SAGPY” value ([6]; 0.0313 kg/ha) was 0.0. The “herbicidal effect rating, SAGPY” value ([6]; 0.0625 kg/ha) was 0.0, the “herbicidal effect rating, SAGPY” value ([6]; 0.1250 kg/ha) was 2.0 and the “herbicidal effect rating, SAGPY” value ([6]; 0.2500 kg/ha) was 4.0.

`Cn1c(C(F)(F)F)cc(=O)n(-c2ccc3snc(CN(C(=O)OC(C)(C)C)S(C)(=O)=O)c3c2)c1=O` [Example 304, Carbamic acid, {{5-[3,6-dihydro-3-methyl-2,6-dioxo-4-(trifluoromethyl)-1(2H)-pyrimidinyl]-1,2-benzisothiazol-3-yl}methyl}(methylsulfonyl)-, tert-butyl ester] was tested, and the “herbicidal effect rating, MOOVA” value ([1]; Rate 0.0320 kg/ha) was 0.0, the “herbicidal effect rating, MOOVA” value ([1]; Rate 0.0620 kg/ha) was 7.0 and the “herbicidal effect rating, MOOVA” value ([1]; Rate 0.1250 kg/ha) was 7.0. For the same compound, the “herbicidal effect rating, MOOVA” value ([1]; Rate 0.2500 kg/ha) was 9.0, the “herbicidal effect rating, CYPSE” value ([2]; Rate 0.0320 kg/ha) was 0.0 and the “herbicidal effect rating, CYPSE” value ([2]; Rate 0.0620 kg/ha) was 0.0. The “herbicidal effect rating, CYPSE” value ([2]; Rate 0.1250 kg/ha) was 0.0, the “herbicidal effect rating, CYPSE” value ([2]; Rate 0.2500 kg/ha) was 0.0 and the “herbicidal effect rating, CYPIR” value ([3]; Rate 0.0320 kg/ha) was 0.0. For the same compound, the “herbicidal effect rating, CYPIR” value ([3]; Rate 0.0620 kg/ha) was 4.0, the “herbicidal effect rating, CYPIR” value ([3]; Rate 0.1250 kg/ha) was 9.0 and the “herbicidal effect rating, CYPIR” value ([3]; Rate 0.2500 kg/ha) was 9.0. For the same compound, the “herbicidal effect rating, ECHORC” value ([4]; Rate 0.0320 kg/ha) was 0.0, the “herbicidal effect rating, ECHORC” value ([4]; Rate 0.0620 kg/ha) was 0.0 and the “herbicidal effect rating, ECHORC” value ([4]; Rate 0.1250 kg/ha) was 0.0. For the same compound, the “herbicidal effect rating, ECHORC” value ([4]; Rate 0.2500 kg/ha) was 0.0, the “herbicidal effect rating ORYSAT” value ([5]; Rate 0.0320 kg/ha) was 0.0 and the “herbicidal effect rating ORYSAT” value ([5]; Rate 0.0620 kg/ha) was 2.0. For the same compound, the “herbicidal effect rating ORYSAT” value ([5]; Rate 0.1250 kg/ha) was 4.0, the “herbicidal effect rating ORYSAT” value ([5]; Rate 0.2500 kg/ha) was 4.0 and the “herbicidal effect rating, SAGPY” value ([6]; Rate 0.0320 kg/ha) was 0.0. For the same compound, the “herbicidal effect rating, SAGPY” value ([6]; Rate 0.0620 kg/ha) was 0.0, the “herbicidal effect rating, SAGPY” value ([6]; Rate 0.1250 kg/ha) was 0.0 and the “herbicidal effect rating, SAGPY” value ([6]; Rate 0.2500 kg/ha) was 0.0.

Work on `COc1cc(C(Br)Br)ccc1-c1nsc2ccc(-n3c(=O)cc(C(F)(F)F)n(C)c3=O)cc12` [Example 447, 2,4(1H,3H)-Pyrimidinedione, 3-[3-(alpha,alpha-dibromo-2-methoxy-p-tolyl)-1,2-benzisothiazol-5-yl]-1-methyl-6-(trifluoromethyl)-] yielded an MOOVA ([1]; 0.0320 kg/ha) of 7.0, an MOOVA ([1]; 0.0620 kg/ha) of 9.0 and an MOOVA ([1]; 0.1250 kg/ha) of 9.0. The MOOVA ([1]; 0.2500 kg/ha) was 9.0, the CYPSE ([2]; 0.0320 kg/ha) was 0.0 and the CYPSE ([2]; 0.0620 kg/ha) was 0.0. The CYPSE ([2]; 0.2500 kg/ha) was 4.0, the CYPIR ([3]; 0.0320 kg/ha) was 4.0 and the CYPIR ([3]; 0.0620 kg/ha) was 6.0. For the same compound, the CYPIR ([3]; 0.1250 kg/ha) was 7.0, the CYPIR ([3]; 0.2500 kg/ha) was 9.0 and the ECHORC ([4]; 0.0320 kg/ha) was 4.0. The ECHORC ([4]; 0.0620 kg/ha) was 6.0, the ECHORC ([4]; 0.1250 kg/ha) was 7.0 and the ECHORC ([4]; 0.2500 kg/ha) was 9.0. The ORYSAT ([5]; 0.0320 kg/ha) was 4.0, the ORYSAT ([5]; 0.0620 kg/ha) was 4.0 and the ORYSAT ([5]; 0.1250 kg/ha) was 5.0. The ORYSAT ([5]; 0.2500 kg/ha) was 7.0, the SAGPY ([6]; 0.0320 kg/ha) was 4.0 and the SAGPY ([6]; 0.0620 kg/ha) was 4.0. It also gave an SAGPY ([6]; 0.1250 kg/ha) of 5.0 and an SAGPY ([6]; 0.2500 kg/ha) of 9.0.
